Measured values reported in patent publication US20200138854A1, “Method of Detecting and Quantifying Bile Acid from Saliva” (Ironwood Pharmaceuticals, Inc., priority 2017, published 2020).
Where “and” joins values, the source holds several entries; their conditions need not be identical. Equal entries are not always repeated.

What was measured:
[1] = Frozen (−20° C.) short-term stability in cholestyramine-treated human saliva; conditions: for % Bias QC-LLOQ / Mean concentration QC-LLOQ / Concentration QC-LLOQ / % Bias QC-Mid / Mean concentration QC-Mid / Concentration QC-Mid / % Bias QC-High / Mean concentration QC-High / Concentration QC-High: cholestyramine-treated human saliva; for Concentration QC-LLOQ / Concentration QC-Mid / Concentration QC-High: single determinations; for Mean concentration after frozen (−20° C.) storage: n 4
Procedure: Quality control samples for the evaluation of accuracy and precision and for run acceptance were prepared on the day of sample extraction. QC samples prepared in cholestyramine-treated saliva are to be prepared in small volumes for analysis. Stability for these QC samples would be limited to short-term storage (i.e., 2 days) whereas untreated human saliva would be evaluated for long-term storage.
For stability in cholestyramine-treated human saliva, samples were prepared by spiking cholestyramine-treated human saliva with each analyte at the QC-LLOQ, QC-Low, QC-Mid and QC-High levels. The samples were stored in a −20° C. freezer. After 1 day and 2 days of storage, each sample was extracted in replicates of four for analysis.

[2] = Long-term (1 month at −20° C. and −80° C.) stability in untreated human saliva; conditions: for Long-term stability in untreated human saliva: at 80° C. (sic); for % Bias QC-High / Difference from Fresh (%) QC-High / Mean concentration QC-High / Concentration QC-High / Mean at Time Zero, Fresh QCs (Batch 34), QC-High: untreated human saliva; for Concentration QC-High: single determinations; for Concentration after long-term storage / Mean concentration after long-term storage: 1 Month; for Concentration after long-term storage / Mean concentration after long-term storage / % Bias / Difference from Fresh (%) / Fresh QCs (Batch 34) Mean at Time Zero: QC-High; for Concentration after long-term storage: individual values, run 35; for Mean concentration after long-term storage: n 3; for % Bias / Difference from Fresh (%): 1 month
Procedure: For long-term stability in untreated human saliva, samples were prepared by spiking untreated human saliva with each analyte at the QC-Low and QC-High levels. The samples were stored in a −20° C. freezer and in a −80° C. freezer. After 1 month of storage, each sample was extracted in replicates of three for analysis.
A 100-μL aliquot of sample (calibration standards, quality controls, blanks, and stability samples) was transferred into a 96 well plate, according to a pre-defined layout. […] The plates were covered, vortex-mixed and then centrifuged for 5 minutes at 3200 rpm. Supernatants (350 μL each) were transferred into the corresponding wells of a clean 96 well plate and evaporated to dryness under nitrogen in a Turbovap set to 40° C. The dried residue in each well was reconstituted with 75 μL of 50:50 (v:v) methanol:water.

[3] = nominal 0.500 ng/mL, 1 Day frozen (−20° C.)
[4] = nominal 0.500 ng/mL, 2 Days frozen (−20° C.)
[5] = nominal 8.00 ng/mL, 1 Day frozen (−20° C.)
[6] = nominal 8.00 ng/mL, 2 Days frozen (−20° C.)
[7] = nominal 80.0 ng/mL, 1 Day frozen (−20° C.)
[8] = nominal 80.0 ng/mL, 2 Days frozen (−20° C.)
[9] = nominal 80.0 ng/mL, 1 month −20° C. storage
[10] = nominal 80.0 ng/mL, 1 month −80° C. storage
[11] = −20° C. Storage, nominal 80.0 ng/mL
[12] = −80° C. Storage, nominal 80.0 ng/mL
[13] = nominal 5.00 ng/mL, 1 Day frozen (−20° C.)
[14] = nominal 5.00 ng/mL, 2 Days frozen (−20° C.)
[15] = nominal 800 ng/mL, 1 Day frozen (−20° C.)
[16] = nominal 800 ng/mL, 2 Days frozen (−20° C.)
[17] = nominal 800 ng/mL, 1 month −20° C. storage
[18] = nominal 800 ng/mL, 1 month −80° C. storage

With C[C@H](CCC(=O)NCC(=O)O)[C@H]1CC[C@H]2[C@@H]3[C@H](O)C[C@@H]4C[C@H](O)CC[C@]4(C)[C@H]3C[C@H](O)[C@]12C [Glycocholic Acid, Glycocholic acid] the “Short-term stability in cholestyramine-treated human saliva” value [1] was “up to 2 days”, the “Stability in Treated Human Saliva” value [1] was 2 days and the “% Bias QC-LLOQ” value [1, 3] was −1.8%. For the same compound, the “Mean concentration QC-LLOQ” value [1, 3] was 0.491 ng/mL, the “Concentration QC-LLOQ” value [1, 3] was 0.485 ng/mL and 0.474 ng/mL and 0.464 ng/mL and 0.541 ng/mL and the “% Bias QC-LLOQ” value [1, 4] was 8.5%. For the same compound, the “Mean concentration QC-LLOQ” value [1, 4] was 0.542 ng/mL, the “Concentration QC-LLOQ” value [1, 4] was 0.464 ng/mL and 0.541 ng/mL and 0.485 ng/mL and 0.474 ng/mL and the “% Bias QC-Mid” value [1, 5] was −10.3%. The “Mean concentration QC-Mid” value [1, 5] was 7.18 ng/mL, the “Concentration QC-Mid” value [1, 5] was 7.20 ng/mL and 7.21 ng/mL and 7.28 ng/mL and 7.01 ng/mL and the “% Bias QC-Mid” value [1, 6] was −8.3%. The “Mean concentration QC-Mid” value [1, 6] was 7.34 ng/mL, the “Concentration QC-Mid” value [1, 6] was 7.28 ng/mL and 7.01 ng/mL and 7.20 ng/mL and 7.21 ng/mL and the “% Bias QC-High” value [1, 7] was −7.5%. The “Mean concentration QC-High” value [1, 7] was 74.0 ng/mL, the “Concentration QC-High” value [1, 7] was 73.2 ng/mL and 74.9 ng/mL and 73.6 ng/mL and 74.2 ng/mL and the “% Bias QC-High” value [1, 8] was −6.7%. The “Mean concentration QC-High” value [1, 8] was 74.7 ng/mL, the “Concentration QC-High” value [1, 8] was 73.6 ng/mL and 74.2 ng/mL and 73.2 ng/mL and 74.9 ng/mL and the “Long-term stability in untreated human saliva” value [2] was “up to 1 month”. For the same compound, the “Stability in Untreated Human Saliva” value ([2]; at −20° C.) was 1 Month, the “Stability in Untreated Human Saliva” value ([2]; at −80° C.) was 1 Month and the “% Bias QC-High” value [2, 9] was −5.9%. For the same compound, the “Difference from Fresh (%) QC-High” value [2, 9] was −6.3%, the “Mean concentration QC-High” value [2, 9] was 75.3 ng/mL and the “Concentration QC-High” value [2, 9] was 72.8 ng/mL and 75.6 ng/mL and 77.5 ng/mL. For the same compound, the “% Bias QC-High” value [2, 10] was −4.8%, the “Difference from Fresh (%) QC-High” value [2, 10] was −5.3% and the “Mean concentration QC-High” value [2, 10] was 76.1 ng/mL. The “Concentration QC-High” value [2, 10] was 78.4 ng/mL and 75.9 ng/mL and 74.1 ng/mL, the “Mean at Time Zero, Fresh QCs (Batch 34), QC-High” value (from here on “Mean at Time Zero, Fresh QCs”) ([2]; nominal 80.0 ng/mL, reference for −20° C. storage) was 80.4 ng/mL and the “Mean at Time Zero, Fresh QCs” value ([2]; nominal 80.0 ng/mL, reference for −80° C. storage) was 80.4 ng/mL.
For C[C@H](CCC(=O)O)[C@H]1CC[C@H]2[C@@H]3[C@H](O)C[C@@H]4C[C@H](O)CC[C@]4(C)[C@H]3C[C@H](O)[C@]12C [Cholic Acid, Cholic acid], the “% Bias” value ([1]; Storage period 1 Day at −20° C., QC-High, nominal 80.0 ng/mL) was −6.7%, the “% Bias” value ([1]; Storage period 1 Day at −20° C., QC-LLOQ, nominal 0.500 ng/mL) was −0.9% and the “% Bias” value ([1]; Storage period 1 Day at −20° C., QC-Mid, nominal 8.00 ng/mL) was −5.9%. The “Mean concentration after frozen (−20° C.) storage” value (“Mean concentration after frozen” below) ([1]; Storage period 1 Day, QC-High, nominal 80.0 ng/mL) was 74.7 ng/mL, the “Mean concentration after frozen” value ([1]; Storage period 1 Day, QC-LLOQ, nominal 0.500 ng/mL) was 0.496 ng/mL and the “Mean concentration after frozen” value ([1]; Storage period 1 Day, QC-Mid, nominal 8.00 ng/mL) was 7.53 ng/mL. For the same compound, the “% Bias” value ([1]; Storage period 2 Days at −20° C., QC-High, nominal 80.0 ng/mL) was −6.2%, the “% Bias” value ([1]; Storage period 2 Days at −20° C., QC-LLOQ, nominal 0.500 ng/mL) was 12.1% and the “% Bias” value ([1]; Storage period 2 Days at −20° C., QC-Mid, nominal 8.00 ng/mL) was −3.6%. The “Mean concentration after frozen” value ([1]; Storage period 2 Days, QC-High, nominal 80.0 ng/mL) was 75.1 ng/mL, the “Mean concentration after frozen” value ([1]; Storage period 2 Days, QC-LLOQ, nominal 0.500 ng/mL) was 0.561 ng/mL and the “Mean concentration after frozen” value ([1]; Storage period 2 Days, QC-Mid, nominal 8.00 ng/mL) was 7.72 ng/mL. For the same compound, the “Concentration after long-term storage” value [2, 11] was 72.6 ng/mL and 76.7 ng/mL and 76.0 ng/mL, the “Mean concentration after long-term storage” value [2, 11] was 75.1 ng/mL and the “Concentration after long-term storage” value [2, 12] was 79.6 ng/mL and 77.9 ng/mL and 77.2 ng/mL. For the same compound, the “Mean concentration after long-term storage” value [2, 12] was 78.2 ng/mL, the “% Bias” value [2, 11] was −6.1% and the “Difference from Fresh (%)” value [2, 11] was −6.1%. For the same compound, the “% Bias” value [2, 12] was −2.2%, the “Difference from Fresh (%)” value [2, 12] was −2.2% and the “Fresh QCs (Batch 34) Mean at Time Zero” value ([2]; reference for −20° C. Storage, nominal 80.0 ng/mL) was 80.0 ng/mL. The “Fresh QCs (Batch 34) Mean at Time Zero” value ([2]; reference for −80° C. Storage, nominal 80.0 ng/mL) was 80.0 ng/mL.
For C[C@H](CCC(=O)O)[C@H]1CC[C@H]2[C@@H]3[C@H](O)C[C@@H]4C[C@H](O)CC[C@]4(C)[C@H]3CC[C@]12C [Chenodeoxycholic Acid, Chenodeoxycholic acid], the “Short-term stability in cholestyramine-treated human saliva” value [1] was “up to 2 days”, the “Stability in Treated Human Saliva” value [1] was 2 days and the “% Bias QC-LLOQ” value [1, 13] was 0.4%. The “Mean concentration QC-LLOQ” value [1, 13] was 5.02 ng/mL, the “Concentration QC-LLOQ” value [1, 13] was 4.72 ng/mL and 5.20 ng/mL and 4.89 ng/mL and 5.28 ng/mL and the “% Bias QC-LLOQ” value [1, 14] was 18.3%. The “Mean concentration QC-LLOQ” value [1, 14] was 5.92 ng/mL, the “Concentration QC-LLOQ” value [1, 14] was 5.73 ng/mL and 6.15 ng/mL and 5.60 ng/mL and 6.18 ng/mL and the “% Bias QC-Mid” value [1, 7] was 2.5%. For the same compound, the “Mean concentration QC-Mid” value [1, 7] was 82.0 ng/mL, the “Concentration QC-Mid” value [1, 7] was 85.9 ng/mL and 84.8 ng/mL and 78.0 ng/mL and 79.2 ng/mL and the “% Bias QC-Mid” value [1, 8] was 4.6%. The “Mean concentration QC-Mid” value [1, 8] was 83.7 ng/mL, the “Concentration QC-Mid” value [1, 8] was 80.0 ng/mL and 87.1 ng/mL and 88.9 ng/mL and 78.8 ng/mL and the “% Bias QC-High” value [1, 15] was −14.7%. The “Mean concentration QC-High” value [1, 15] was 683 ng/mL, the “Concentration QC-High” value [1, 15] was 644 ng/mL and 699 ng/mL and 671 ng/mL and 717 ng/mL and the “% Bias QC-High” value [1, 16] was −9.3%. For the same compound, the “Mean concentration QC-High” value [1, 16] was 725 ng/mL, the “Concentration QC-High” value [1, 16] was 693 ng/mL and 777 ng/mL and 725 ng/mL and 706 ng/mL and the “Long-term stability in untreated human saliva” value [2] was “up to 1 month”. The “Stability in Untreated Human Saliva” value ([2]; at −20° C.) was 1 Month, the “Stability in Untreated Human Saliva” value ([2]; at −80° C.) was 1 Month and the “% Bias QC-High” value [2, 17] was −15.1%. The “Difference from Fresh (%) QC-High” value [2, 17] was −13.5%, the “Mean concentration QC-High” value [2, 17] was 679 ng/mL and the “Concentration QC-High” value [2, 17] was 693 ng/mL and 686 ng/mL and 659 ng/mL. The “% Bias QC-High” value [2, 18] was −15.7%, the “Difference from Fresh (%) QC-High” value [2, 18] was −14.1% and the “Mean concentration QC-High” value [2, 18] was 674 ng/mL. For the same compound, the “Concentration QC-High” value [2, 18] was 701 ng/mL and 692 ng/mL and 630 ng/mL, the “Mean at Time Zero, Fresh QCs” value ([2]; nominal 800 ng/mL, reference for −20° C. storage) was 785 ng/mL and the “Mean at Time Zero, Fresh QCs” value ([2]; nominal 800 ng/mL, reference for −80° C. storage) was 785 ng/mL.
